Values quoted from earlier work in publication PMC7397562 (Drug Design, Development and Therapy, 2020).

- Oral absolute bioavailability (mean value): < 3.05%
SMILES: COc1ccc(-c2cc(=O)c3c(OC)c(OC)c(OC)c(OC)c3o2)cc1 [TAGE, tangeretin]
